Assay results published in ChEMBL document CHEMBL1149964, “The structure of MK-571 (form I) at 170 K and conformational analysis by molecular modeling” (Bioorg Med Chem Lett, 1992).

Key:
[1] = biological target: T1, Cysteinyl leukotriene receptor 1 (Homo sapiens) (UniProt Q9Y271); test: In vivo antagonistic activity against leukotriene D4 receptor; A - Active; assay type: functional, organism-based; conditions: filed as antagonist
T1 sequence (whole entry): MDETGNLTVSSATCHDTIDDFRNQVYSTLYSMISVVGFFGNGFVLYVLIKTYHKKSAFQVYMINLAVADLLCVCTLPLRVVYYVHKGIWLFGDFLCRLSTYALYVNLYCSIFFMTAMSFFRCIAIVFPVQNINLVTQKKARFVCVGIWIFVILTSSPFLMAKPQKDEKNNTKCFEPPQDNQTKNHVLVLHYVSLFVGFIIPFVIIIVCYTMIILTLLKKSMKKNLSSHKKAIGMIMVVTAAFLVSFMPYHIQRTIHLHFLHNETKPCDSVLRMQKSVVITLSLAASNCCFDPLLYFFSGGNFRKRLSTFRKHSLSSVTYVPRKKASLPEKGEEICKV

[2] = biological target: T1, Cysteinyl leukotriene receptor 1 (Homo sapiens); test: In vitro antagonistic activity against leukotriene D4 receptor; A - Active; assay type: functional; conditions: filed as antagonist

Row | Structure (SMILES) | Activity [1] | Activity [2]
1 | CN(C)C(=O)CCS[C@H](SCCC(=O)O)c1cccc(/C=C/c2ccc3ccc(Cl)cc3n2)c1 | Antagonist | Antagonist
2 | CN(C)C(=O)CCSC(SCCC(=O)O)c1cccc(/C=C/c2ccc3ccc(Cl)cc3n2)c1 (centres undefined) | Antagonist | Antagonist
